Measurements published in ChEMBL document CHEMBL1145536, “Low-oxygen-recovery assay for high-throughput screening of compounds against nonreplicating Mycobacterium tuberculosis” (2007).
≈ marks a conversion by molar mass, not a printed value.

Legend:
Assay type in all cases: functional
[1] = tested on: Mycobacterium tuberculosis; assay: Antimicrobial activity against non replicating persistence Mycobacterium tuberculosis H37Rv in anaerobic condition assessed as bacterial density after 10 days; conditions: 240 h
[2] = tested on: Mycobacterium tuberculosis; assay: Antimicrobial activity against non replicating persistence Mycobacterium tuberculosis H37Rv in anaerobic condition assessed as relative light unit after 11 days by LORA assay; conditions: 264 h
[3] = tested on: Mycobacterium tuberculosis; assay: Antimicrobial activity against non replicating persistence Mycobacterium tuberculosis H37Rv in aerobic condition assessed as bacterial density after 7 days; conditions: 168 h
[4] = tested on: Mycobacterium tuberculosis; assay: Antimicrobial activity against non replicating persistence Mycobacterium tuberculosis H37Rv in aerobic condition assessed by relative light units after 7 days; conditions: 168 h

| SMILES | MIC [1] [µM] | MIC [2] [µM] | MIC [3] [µM] | MIC [4] [µM] |
| --- | --- | --- | --- | --- |
| CC[C@H]1OC(=O)[C@H](C)[C@@H](O[C@H]2C[C@@](C)(OC)[C@@H](O)[C@H](C)O2)[C@H](C)[C@@H](O[C@@H]2O[C@H](C)C[C@H](N(C)C)[C@H]2O)[C@](C)(OC)C[C@@H](C)C(=O)[C@H](C)[C@@H]2N(NCCCc3ccnc4ccccc34)C(=O)O[C@@]21C | 1.3 (≈ 1.24 µg/mL) | 2.7 (≈ 2.58 µg/mL) | 1.8 (≈ 1.72 µg/mL) | 0.8 (≈ 0.766 µg/mL) |
| CCC[C@@H]1C[C@@H](C(=O)N[C@H](C(C)Cl)[C@H]2O[C@H](SC)[C@H](O)[C@@H](O)[C@H]2O)N(C)C1 (single isomer, unassigned) [CLINDAMYCIN] | > 128 | > 128 | > 128 | > 128 |
| CN[C@@H]1[C@H](O[C@H]2[C@H](O[C@H]3[C@H](O)[C@@H](O)[C@H](N=C(N)N)[C@@H](O)[C@@H]3N=C(N)N)O[C@@H](C)[C@]2(O)C=O)O[C@@H](CO)[C@H](O)[C@H]1O (stereo in doubt) [STREPTOMYCIN] | 0.8 (≈ 0.465 µg/mL) | 1.2 (≈ 0.698 µg/mL) | ≤ 0.5 | 0.5 (≈ 0.291 µg/mL) |
| NCC[C@H](O)C(=O)N[C@@H]1C[C@H](N)[C@@H](O[C@H]2O[C@H](CN)[C@@H](O)[C@H](O)[C@H]2O)[C@H](O)[C@H]1O[C@H]1O[C@H](CO)[C@@H](O)[C@H](N)[C@H]1O [AMIKACIN] | ≤ 0.5 | ≤ 0.5 | ≤ 0.5 | 0.5 (≈ 0.293 µg/mL) |
| Nc1ccc(C(=O)O)c(O)c1 [AMINOSALICYLIC ACID] | > 128 | > 128 | 12.3 (≈ 1.88 µg/mL) | 12.3 (≈ 1.88 µg/mL) |
| CC(=O)Nc1ccc(/C=N/NC(N)=S)cc1 [AMITHIOZONE] | 70.4 (≈ 16.6 µg/mL) | > 128 | 31.3 (≈ 7.4 µg/mL) | 14.6 (≈ 3.45 µg/mL) |
| O=C(O)c1cn(C2CC2)c2cc(N3CCNCC3)c(F)cc2c1=O [CIPROFLOXACIN] | 33 (≈ 10.9 µg/mL) | > 128 | ≤ 0.5 | 1.5 (≈ 0.497 µg/mL) |
| CC[C@H]1OC(=O)[C@H](C)[C@@H](O[C@H]2C[C@@](C)(OC)[C@@H](O)[C@H](C)O2)[C@H](C)[C@@H](O[C@@H]2O[C@H](C)C[C@H](N(C)C)[C@H]2O)[C@](C)(OC)C[C@@H](C)C(=O)[C@H](C)[C@@H](O)[C@]1(C)O [CLARITHROMYCIN] | 18.7 (≈ 14 µg/mL) | > 128 | 1.6 (≈ 1.2 µg/mL) | 13.4 (≈ 10 µg/mL) |
| CC(C)/N=c1\cc2n(-c3ccc(Cl)cc3)c3ccccc3nc-2cc1Nc1ccc(Cl)cc1 [CLOFAZIMINE] | 0.8 (≈ 0.379 µg/mL) | 1.5 (≈ 0.71 µg/mL) | 0.7 (≈ 0.331 µg/mL) | ≤ 0.5 |
| N[C@@H]1CONC1=O [CYCLOSERINE] | 125 (≈ 12.7 µg/mL) | > 128 | 60.5 (≈ 6.18 µg/mL) | 63.7 (≈ 6.5 µg/mL) |
| CC[C@@H](CO)NCCN[C@@H](CC)CO [ETHAMBUTOL] | > 128 | > 128 | 1 (≈ 0.204 µg/mL) | 1.8 (≈ 0.368 µg/mL) |
| O=C1OCCN1/N=C/c1ccc([N+](=O)[O-])o1 [FURAZOLIDONE] | 44.8 (≈ 10.1 µg/mL) | 9.7 (≈ 2.18 µg/mL) | 1 (≈ 0.225 µg/mL) | 77.4 (≈ 17.4 µg/mL) |
| CC(=O)O[C@H]1C[C@@]2(C)[C@@H](C[C@@H](O)[C@H]3[C@@]4(C)CC[C@@H](O)[C@@H](C)[C@@H]4CC[C@@]32C)/C1=C(\CCC=C(C)C)C(=O)O [FUSIDIC ACID] | 7.2 (≈ 3.72 µg/mL) | 57.7 (≈ 29.8 µg/mL) | 7 (≈ 3.62 µg/mL) | 15.8 (≈ 8.16 µg/mL) |
| NNC(=O)c1ccncc1 [ISONIAZID] | > 128 | > 128 | ≤ 0.5 | ≤ 0.5 |
| CC(=O)N1CCN(c2ccc(OC[C@H]3CO[C@](Cn4ccnc4)(c4ccc(Cl)cc4Cl)O3)cc2)CC1 [KETOCONAZOLE] | 53.3 (≈ 28.3 µg/mL) | 53 (≈ 28.2 µg/mL) | 7.6 (≈ 4.04 µg/mL) | 13.9 (≈ 7.39 µg/mL) |
| CCC[C@@H]1C[C@@H](C(=O)N[C@@H]([C@H]2O[C@H](SC)[C@H](O)[C@@H](O)[C@H]2O)[C@@H](C)O)N(C)C1 [LINCOMYCIN] | > 128 | > 128 | 104 (≈ 42.1 µg/mL) | > 128 |
| CC(=O)NC[C@H]1CN(c2ccc(N3CCOCC3)c(F)c2)C(=O)O1 [LINEZOLID] | > 128 | 65.2 (≈ 22 µg/mL) | 1.9 (≈ 0.641 µg/mL) | 6.3 (≈ 2.13 µg/mL) |
| Cc1ncc([N+](=O)[O-])n1CCO [METRONIDAZOLE] | 40 (≈ 6.85 µg/mL) | > 128 | > 128 | > 128 |
| CN(C)c1ccc(O)c2c1C[C@H]1C[C@H]3[C@H](N(C)C)C(O)=C(C(N)=O)C(=O)[C@@]3(O)C(O)=C1C2=O [MINOCYCLINE] | 38.4 (≈ 17.6 µg/mL) | 53.5 (≈ 24.5 µg/mL) | 7.2 (≈ 3.29 µg/mL) | 7.1 (≈ 3.25 µg/mL) |
| COc1c(N2C[C@@H]3CCCN[C@@H]3C2)c(F)cc2c(=O)c(C(=O)O)cn(C3CC3)c12 [MOXIFLOXACIN] | ≤ 0.5 | 15.9 (≈ 6.38 µg/mL) | ≤ 0.5 | 0.5 (≈ 0.201 µg/mL) |
| O=C(Nc1ccc([N+](=O)[O-])cc1Cl)c1cc(Cl)ccc1O [NICLOSAMIDE] | 0.9 (≈ 0.294 µg/mL) | ≤ 0.5 | ≤ 0.5 | ≤ 0.5 |
| O=C1CN(/N=C/c2ccc([N+](=O)[O-])o2)C(=O)N1 [NITROFURANTOIN] | 32 (≈ 7.62 µg/mL) | 63.9 (≈ 15.2 µg/mL) | 0.9 (≈ 0.214 µg/mL) | > 128 |
| CC1COc2c(N3CCN(C)CC3)c(F)cc3c(=O)c(C(=O)O)cn1c23 (stereo not given) [OFLOXACIN] | 24.2 (≈ 8.75 µg/mL) | > 128 | 0.7 (≈ 0.253 µg/mL) | 2.3 (≈ 0.831 µg/mL) |
| O=[N+]([O-])c1cn2c(n1)OC[C@@H](OCc1ccc(OC(F)(F)F)cc1)C2 [PRETOMANID] | 12 (≈ 4.31 µg/mL) | 3.1 (≈ 1.11 µg/mL) | 0.7 (≈ 0.251 µg/mL) | 0.6 (≈ 0.216 µg/mL) |
| NC(=O)c1cnccn1 [PYRAZINAMIDE] | 96 (≈ 11.8 µg/mL) | > 128 | > 128 | > 128 |
| CO[C@H]1/C=C/O[C@@]2(C)Oc3c(C)c(O)c4c(c3C2=O)C2=NC3(CCN(CC(C)C)CC3)NC2=C(NC(=O)/C(C)=C\C=C\[C@H](C)[C@H](O)[C@@H](C)[C@@H](O)[C@@H](C)[C@H](OC(C)=O)[C@@H]1C)C4=O [RIFABUTIN] | ≤ 0.5 | ≤ 0.5 | ≤ 0.5 | 0.5 (≈ 0.424 µg/mL) |
| CO[C@H]1/C=C/O[C@@]2(C)Oc3c(C)c(O)c4c(O)c(c(/C=N/N5CCN(C)CC5)c(O)c4c3C2=O)NC(=O)/C(C)=C\C=C\[C@H](C)[C@H](O)[C@@H](C)[C@@H](O)[C@@H](C)[C@H](OC(C)=O)[C@@H]1C [RIFAMPIN] | ≤ 0.5 | 1.8 (≈ 1.48 µg/mL) | ≤ 0.5 | 0.5 (≈ 0.411 µg/mL) |
| C[C@]1(Cn2ccnn2)[C@H](C(=O)O)N2C(=O)C[C@H]2S1(=O)=O [TAZOBACTAM] | > 128 | > 128 | > 128 | > 128 |
| COc1cc(Cc2cnc(N)nc2N)cc(OC)c1OC [TRIMETHOPRIM] | 83.2 (≈ 24.2 µg/mL) | > 128 | > 128 | > 128 |
| CN[C@H](CC(C)C)C(=O)N[C@H]1C(=O)N[C@@H](CC(N)=O)C(=O)N[C@H]2C(=O)N[C@H]3C(=O)N[C@H](C(=O)N[C@H](C(=O)O)c4cc(O)cc(O)c4-c4cc3ccc4O)[C@H](O)c3ccc(c(Cl)c3)Oc3cc2cc(c3O[C@@H]2O[C@H](CO)[C@@H](O)[C@H](O)[C@H]2O[C@H]2C[C@](C)(N)[C@H](O)[C@H](C)O2)Oc2ccc(cc2Cl)[C@H]1O [VANCOMYCIN] | 128 (≈ 186 µg/mL) | > 128 | 15.5 (≈ 22.5 µg/mL) | > 128 |
